For experiment [1], the system named is BTK C481S expressing lentiviral vector transduced TMD8 ABC-DLBCL cells. Put plainly: CellTiter-Glo cell viability assay in BTK WT or BTK C481S transduced TMD8 cells. The format is cell-based. Particulars: MYD88 mutated ABC DLBCL cells (TMD8), 72 hrs, FIG. 4. A general note: Cellular ATP, detected with luciferase, serves as a proxy for viable cell number.
For experiment [2], the system named is BTK C481S expressing lentiviral vector transduced BCWM.1 WM cells. In words: CellTiter-Glo cell viability assay in BTK WT or BTK C481S transduced BCWM.1 cells. The format is cell-based. Particulars: MYD88 mutated WM cells (BCWM.1), 72 hrs, FIG. 4.

For `CN1CCN(C2CCC(n3nc(-c4ccc(Oc5ccccc5)cc4)c4c(N)nccc43)CC2)CC1` (centres unmarked) [Compound I-4], the “drug dose-response in BTK C481S expressing cells (ibrutinib resistance)” value in experiment [1] and in experiment [2] was “overcomes BTKC481S mediated ibrutinib resistance” each time.

Source of the values: patent US12679842B2, “HCK as a therapeutic target in MYD88 mutated diseases” (Dana-Farber Cancer Institute, Inc., priority 2019, dated 2026).
